Earlier results, collected in patent US11324965B2, “Non-invasive energy upconversion methods and systems” (IMMUNOLIGHT, LLC., priority 2009, dated 2022).
Read-outs that look alike come from different tables or passages of the source. Square brackets hold non-standard residues; d marks the D form. Peptide text beside a SMILES is read from it. Bpa = N[CH](Cc1ccc(C(=O)c2ccccc2)cc1)C(=O)O; 2Nal = N[CH](Cc1ccc2ccccc2c1)C(=O)O; Aib = CC(C)(N)C(=O)O

Assays:
[1] = orange juice, high UV exposure of 100 mJ/cm^2
[2] = for KSSET (Average): average over λex 224, 266, 280 nm
[3] = tested on: tumors; details: in vivo

Structure (SMILES)	duration of skin photosensitivity (in vivo)	degradation of Vitamin C [1] [%]	KSSET (Average) [2]	KSSET ([2]; λex 224 nm)	KSSET ([2]; λex 266 nm)	KSSET ([2]; λex 280 nm)	selectivity for tumors compared to normal tissues [3]	duration of skin photosensitivity (clinical use) [h]
Oc1cccc(-c2c3nc(c(-c4cccc(O)c4)c4ccc([nH]4)c(-c4cccc(O)c4)c4nc(c(-c5cccc(O)c5)c5ccc2[nH]5)CC4)C=C3)c1 [Foscan, Tetra (m-hydroxyphenyl) chlorin]	approximately 2 weeks							
O=C1O[C@H]([C@@H](O)CO)C(O)=C1O [Vitamin C]		17						
C=C(NC(C)(C)C(=O)NC(Cc1ccc2ccccc2c1)C(=O)NC(C)(C)C(=O)NC(Cc1ccc(C(=O)c2ccccc2)cc1)C(=O)NC(C)(C)C(=O)NC(C)C(=O)O)C(C)NC(=O)[C@@H](C)N (single isomer, unassigned) [Compound 2A]			3 × 10^7 S^−1	2.1 × 10^7 S^−1	3.7 × 10^7 S^−1	3.2 × 10^7 S^−1		
C=C(NC(C)(C)C(=O)NC(Cc1ccc2ccccc2c1)C(=O)NC(C)(C)C(=O)NC(Cc1ccc(C(=O)c2ccccc2)cc1)C(=O)NC(C)(C)C(=O)NC(C)C(=O)O)C(C)NC(=O)[C@@H](C)N (single isomer, unassigned) [Compound 2B]			3.9 × 10^7 S^−1	3.1 × 10^7 S^−1	3.9 × 10^7 S^−1	4.7 × 10^7 S^−1		
CC1NC(=O)C(C)(C)NC(=O)C(Cc2ccc(C(=O)c3ccccc3)cc2)NC(=O)C(C)(C)NC(=O)C(C)NC(=O)C(C)(C)NC(=O)C(Cc2ccc3ccccc3c2)NC(=O)C(C)(C)NC1=O (centres unmarked) [Compound 1A] (cyclo([Aib][2Nal][Aib]A[Aib][Bpa][Aib]A); configuration not given here)			3.67 × 10^7 S^−1	3.8 × 10^7 S^−1	3.6 × 10^7 S^−1	3.6 × 10^7 S^−1		
CC(NC(=O)C(C)(C)NC(=O)C(Cc1ccc(C(=O)c2ccccc2)cc1)NC(=O)C(C)(C)NC(=O)C(C)NC(=O)C(C)(C)NC(=O)C(Cc1ccc2ccccc2c1)NC(=O)C(C)(C)N)C(=O)O (centres unmarked) [Compound 1B] (H-[Aib][2Nal][Aib]A[Aib][Bpa][Aib]A-OH; configuration not given here)			1.87 × 10^8 S^−1	2.44 × 10^8 S^−1	1.8 × 10^8 S^−1	1.36 × 10^8 S^−1		
CC(=O)[O-].CC(=O)[O-].CCc1c(CC)c2cc3nc(cnc4cc(OCCOCCOCCOC)c(OCCOCCOCCOC)cc4ncc4nc(cc1[n-]2)C(CCCO)=C4C)C(C)=C3CCCO.O.[Lu+3] [Lutetium texaphryin, Motexafin lutetium]							one of the greatest reported selectivities for tumors	24 to 48
